Reference: patent US9345791B2, “Ligands for targeting of S1P receptors for in vivo imaging and treatment of diseases” (Westfaelische Wilhelms-Universitaet Muenster, priority 2011, dated 2016)
pKd: −log10 of the molar value.

What was measured:
[1] = test system: Lymphocytes (T- and B-cells); assay: Immunosuppressive activity in vivo: peripheral blood lymphopenia, flow cytometry; parameters: species or system mice; conditions: for B cells / CD4+ / CD8+ / WBC: intraperitoneally at 1.25 microgramm/kg body weight, blood drawn 24 hours later; for WBC: peripheral blood; for immunosuppressive action / effectiveness (in words): summary of table 1 in text
Procedure: The compounds of the invention were tested for immunosuppressive biological activity in vivo based on the known ability of S1P analogues to induce peripheral blood lymphopenia due to lymphocyte trapping in secondary lymph organs. The immunosuppressive activity of compound 21 (555558) and of compound 27 (555890) was compared with the corresponding activity a non-fluorinated analogue compound 7 (5551091), and non-ω (or close to ω)-fluorinated compounds (compounds 8 (555535) and 12 (555517)) as well as with FTY720 as a standard. The compounds were injected intraperitoneally at 1.25 microgramm/kg body weight in a total volume of 200 microliter. 24 hours later, blood was drawn from the retroorbital plexus in 17.8 mM EDTA as an anti-coagulant. Lymphocytes (T- and B-cells) were analyzed by flow cytometry as following: After lysis of red blood cells by BD Pharm Lyse (Becton Dickinson) in 50 microliter blood, cells were washed, resuspended in 100 microliter FACS buffer (1% BSA in PBS), and antibodies to CD4, CD8 and B220 (Becton Dickinson) were added (1 microliter antibody per sample each) for 30 minutes at room temperature. After 3 washes, cells were then analyzed by flow cytometry in a Gallios Beckman Coulter flow cytometer.

[2] = test system: G-protein-coupled cell surface receptors (S1PR) designated S1P1-5; conditions: cited from earlier work

Structure (SMILES) | melting point [°C] | B cells ([1]; cell count) | CD4+ ([1]; cell count) | CD8+ ([1]; cell count) | WBC [1] | B cells ([1]; percentage) [%] | CD4+ ([1]; percentage) [%] | CD8+ ([1]; percentage) [%] | immunosuppressive action / effectiveness (in words) [1] | pKd [2]
NC(CO)(CO)CCCCCCCCCCCCCCCF [SSS890, 2-Amino-2-(15-fluoropentadecyl)propane-1,3-diol] | 85 | – | – | – | – | – | – | – | – | –
NC(CO)(CO)CCCCCCCCCCCCCCCCF [SSS558, 2-Amino-2-(16-fluorohexadecyl)propan-1,3-diol] | 77 | 1.52 0.04 10^6/mL | 0.15 0.08 10^6/mL | 0.13 0.04 10^6/mL | 3.74 0.70 10^6/mL | – | – | – | – | –
CCCCCCCCCCCCC/C=C(\F)CC(N)(CO)CO [SSS862, (Z)-2-Amino-2-(2-fluorohexadec-2-en-1-yl)propane-1,3-diol] | 68 to 70 | 3.23 10^6/mL | 0.27 10^6/mL | 0.41 10^6/mL | 5.31 10^6/mL | 60.90 | 5.00 | 7.80 | – | –
CCCCCCCCCCCCCCCCC(N)(CO)CF (stereo not shown) [SSS535, 2-Amino-2-(fluoromethyl)octadecan-1-ol] | 52 | 3.54 10^6/mL | 0.42 10^6/mL | 0.39 10^6/mL | 7.05 10^6/mL | 50.20 | 6.00 | 5.50 | diminishes effectiveness | –
CCC/C=C/CC(N)COP(=O)(O)O (stereo not shown) [Compound B1088] | – | 2.76 10^6/mL | 0.34 10^6/mL | 0.49 10^6/mL | 7.15 10^6/mL | 38.60 | 4.80 | 6.90 | – | –
CCCCCCCCCCCCC/C=C/[C@@H](O)[C@@H](N)COP(=O)(O)O [Compound S1P, Sphingosine-1-phosphate] | – | – | – | – | – | – | – | – | – | 7.70 to 8.10
CCC/C=C/CC(N)CO (stereo not shown) [SSS182] | – | 2.91 10^6/mL | 0.43 10^6/mL | 0.48 10^6/mL | 6.90 10^6/mL | 42.20 | 6.30 | 7.00 | – | –
NC(CO)(CO)CCc1ccc(CCCCCCF)cc1 [SSS 944, 2-Amino-2-(4-(6-fluorohexyl)phenethyl)propane-1,3-diol] | 108 | – | – | – | – | – | – | – | – | –
CCCCCCCCCCCCC/C=C(/F)CC(N)(CO)CO [SSS864, (E)-2-Amino-2-(2-fluorohexadec-2-en-1-yl)propane-1,3-diol] | 74 | 3.41 10^6/mL | 0.28 10^6/mL | 0.37 10^6/mL | 5.27 10^6/mL | 64.70 | 5.40 | 7.00 | – | –
CCCCCCCCCCCCCCC(F)CC(N)(CO)CO.Cl (stereo not shown) [SSS564, 2-Amino-2-(2-fluorohexadecyl)propan-1,3-diol hydrochloride] | 108 to 110 | 5.52 10^6/mL | 0.65 10^6/mL | 0.98 10^6/mL | 13.07 10^6/mL | 42.20 | 5.00 | 7.50 | – | –
CN(C)c1cccc2c(S(=O)(=O)NCCCCCCCCCCCCCCCCC(N)(CO)CO)cccc12 [SSS846, N-(17-Amino-18-hydroxy-17-(hydroxymethyl)octadecyl)-5-(dimethylamino)naphthalene-1-sulfonamide] | 72 to 75 | 5.32 10^6/mL | 0.98 10^6/mL | 0.52 10^6/mL | 9.28 10^6/mL | 57.30 | 10.60 | 5.60 | – | –
CCCCCCCCc1ccc(C(O)CC(N)(CO)CO)cc1 (stereo not shown) [SSS 563, 3-Amino-3-(hydroxymethyl)-1-(4-octylphenyl)butane-1,4-diol] | 74 to 76 | – | – | – | – | – | – | – | – | –
CCCCCCCCCCCCCCC(F)CC(N)(CO)CO (stereo not shown) [SSS517, 2-Amino-2-(2-fluorohexadecyl)propan-1,3-diol] | 96 to 98 | 4.81 10^6/mL | 0.54 10^6/mL | 0.60 10^6/mL | 11.35 10^6/mL | 42.40 | 4.80 | 5.30 | very moderate immunosuppressive action | –
CCCCCCCCCCCCCCCCC(N)(CO)CO [SSS1091, 2-Amino-2-hexadecylpropane-1,3-diol] | – | 1.27 0.26 10^6/mL | 0.09 0.02 10^6/mL | 0.08 0.01 10^6/mL | 4.14 0.60 10^6/mL | – | – | – | – | –
CCC/C=C(\F)CC(N)COP(=O)(O)O (stereo not shown) [Compound B1087] | – | 2.49 10^6/mL | 0.42 10^6/mL | 0.59 10^6/mL | 7.06 10^6/mL | 35.20 | 5.90 | 8.40 | – | –
CCCCCCCCCCCCC/C=C/CC(N)(CO)CO [SSS822, (E)-2-Amino-2-(hexadec-2-en-1-yl)propane-1,3-diol] | 57 | 1.17 0.33 10^6/mL | 0.10 0.01 10^6/mL | 0.12 0.05 10^6/mL | 5.02 1.04 10^6/mL | – | – | – | – | –
CCCCCCCCc1ccc(CCC(N)(CO)CO)cc1 [FTY 720, 2-Amino-2-(4-octylphenethyl)propane-1,3-diol, reference compound] | – | 0.61 10^6/mL | 0.02 10^6/mL | 0.04 10^6/mL | 3.69 10^6/mL | 20.08 | 1.10 | 0.30 | – | –
CCCCCCCCCCCCCCC(N)(CO)CO [SSS943, 2-Amino-2-tetradecylpropane-1,3-diol] | – | 0.60 10^6/mL | 0.04 10^6/mL | 0.04 10^6/mL | 1.73 10^6/mL | 35.21 | 2.25 | 2.35 | – | –
